Entries after “also recorded” stand apart in the source; their conditions may differ.
Tests used:
[1] = target: T1, Piezo1 (Mus musculus, UniProt E2JF22); experiment: Intracellular calcium concentration (Fluo-8) in control or Piezo1 knock-down MLO-Y4 cells; type: cell-based, murine; settings: for calcium influx / increase of intracellular calcium in Piezo1 knock-down cells: Piezo1 knock-down (sh-Piezo1) MLO-Y4 cells
T1 construct: To identify Piezo1 stimulators, we treated MLO-Y4 cells with compounds; endogenous in cells; host or cells: MLO-Y4 (murine osteocyte-like cell line); control sh-Luc cells, with sh-Piezo1 knock-down cells as the specificity control
Description: Calcium concentration measurement. For intracellular calcium concentration measurement under fluid flow condition, 1×10^5 MLO-Y4 cells were seeded in a μ-Slide I Luer (0.4 mm) fluid chamber slide (MIDI, Germany) overnight. One hour before initiating fluid flow, the culture medium was removed and 100 μl Hank's Buffer with Hepes (HHBS) containing 4μM Fluo-8 (Abcam, Cambridge, MA) was added to the culture, as described by the manufacturer. The cells were then cultured at 37° C. for 30 minutes. After additional incubation at room temperature for 30 minutes, the chamber slide was placed under a confocal microscope in order to record the intensity of fluorescence of MLO-Y4 cells. Fluorescence was recorded for 3 minutes before starting fluid flow using HHBS and then recorded for another 10 minutes. The increase of intracellular concentration was calculated by subtracting the initial mean fluorescence. For measuring intracellular calcium concentration in cells with Yoda1 treatment, we cultured 4,000 MLO-Y4 cells per well in a 96-well-plate. We preloaded the cells with Fluo-8 as described by the manufacturer and read the intensity of the fluorescence using a Victor X3 multi-label plate reader (Perkin Elmer, Waltham, MA) immediately after the treatment. We measured the fluorescence for 5 minutes at an interval of 20 seconds. The percentage of increase in intracellular calcium concentration was calculated as (Fx-F0)/F0.
(§1) To identify Piezo1 stimulators, we treated MLO-Y4 cells with compounds Yoda1, YW-3-159, W-3-163, W-3-168-1, W-3-168-2, W-3-170, W-3-173-1, W-3-173-2, and YW-3-174. Gene expression of Wnt1, Ptgs2, and Tnfrsf11b was measured to determine the activation of Piezo1. In addition, intracellular calcium concentration was measured to determine the activity of Piezo1 channel. […] Yoda1 was used as a positive control in all experiments.

[2] = target: T1, Piezo1; experiment: Activation of Piezo1 in MLO-Y4 cells, overall conclusion from gene expression and calcium influx; type: cell-based, murine
Description: as §1

[3] = system: osteocyte-enriched cortical bone; experiment: Wnt1 expression in tibia after one Yoda1 injection; type: in vivo; settings: 4-month-old female C57BL/6J mice, one injection 5 μmol/kg intraperitoneally, tibiae 4 hours later
Description: To quantify cancellous bone formation, we injected mice with calcein (20 mg/kg body weight) intraperitoneally 7 and 3 days before harvest. To quantify periosteal and endocortical bone formation, we injected mice with calcein (20 mg/kg body weight) and Alizarin Red (20 mg/kg body weight) 10 and 3 days before harvest. For gene expression, we injected Yoda1 into 4-month-old female C57BL/6J mice one time and harvested tibiae 4 hours later for RNA extraction. For bone mass evaluation, we injected Yoda1 into 4-month-old female C57BL/6J mice 5 consecutive days per week for 2 weeks (day 1-5 and day 8-12) and harvested the mice at day 15 for analysis. […]
Quantitative PCR. […] We performed quantitative RT-PCR using the following Taqman assays from Applied Biosystems: Piezo1 (Mm01241549_m1); Piezo2 (Mm01265861_m1); Ptgs2 (Mm00478374_m1); Cyr61 (Mm00487498_m1); Wnt1 (Mm01300-555_g1); Yap1 (Mm011432-63_m1); Taz (Mm01289583_m1); Tnfsf11 Mm00441906_m1; Tnfrsf11b (Mm00435452_m1); Sost (Mm00470479_m1); and ribosomal protein S2 (Mrps2) (Mm00475529_m1). We calculated relative mRNA amounts using the ΔCt method (Livak and Schmittgen, 2001). […] We obtained two custom Taqman assays from Applied Biosystems for quantifying Piezo1 gene deletion efficiency: one specific for sequences between the loxP sites and the other specific for sequences downstream from the 3′ loxP site.

[4] = system: C57BL/6J mice; experiment: Serum osteocalcin and CTX ELISA after 2 weeks of administration; type: in vivo; settings: 4-month-old female C57BL/6J mice, 5 μmol/kg intraperitoneally, 5 days per week for 2 weeks
Description: To quantify cancellous bone formation, we injected mice with calcein (20 mg/kg body weight) intraperitoneally 7 and 3 days before harvest. To quantify periosteal and endocortical bone formation, we injected mice with calcein (20 mg/kg body weight) and Alizarin Red (20 mg/kg body weight) 10 and 3 days before harvest. For gene expression, we injected Yoda1 into 4-month-old female C57BL/6J mice one time and harvested tibiae 4 hours later for RNA extraction. For bone mass evaluation, we injected Yoda1 into 4-month-old female C57BL/6J mice 5 consecutive days per week for 2 weeks (day 1-5 and day 8-12) and harvested the mice at day 15 for analysis. Yoda1 (Sigma, St. Louis, MO) was dissolved in DMSO at 40 mM as a stock, diluted in 5% ethanol, and injected intraperitoneally at 5 μmol/kg body weight. Mice were rank-ordered by body weight and then assigned to Veh or Yoda1 groups to give identical group means. All investigators involved in data collection were blinded as to the genotype and group of the mice.
Osteocalcin and CTX ELISA. Circulating osteocalcin and CTX in serum was measured using a mouse Osteocalcin enzyme immunoassay kit (Thermo Fisher) and RatLaps™ (CTX-I) EIA kit (Immunodiagnostic Systems, Boldon, UK) respectively according to the manual provided by manufacturers. Blood was collected by retro-orbital bleeding into 1.7 mL microcentrifuge tubes. […]

[5] = system: femoral cortical bone; experiment: Ex vivo femoral cortical bone organ culture, qPCR; type: cell-based; settings: cortical bone organ culture from 5-week-old mice, 10 μM, 4 hours, vs DMSO
Description: Femoral organ culture. Female mice at 5 weeks of age were euthanized in a CO2 chamber. Femurs were dissected and both ends were removed in a culture hood. Bone marrow was then flushed out using PBS and the periosteal surface was scraped to remove periosteal cells. Femoral shafts were then cultured in a 12-well-plate with 1 ml of α-MEM supplemented with 10% FBS and 1% penicillin/streptomycin/glutamine for 24 hours. We then treated femur shafts with 10 μM Yoda1 (Sigma, St. Louis, MO) or DMSO for 4 hours. Femur shafts were then collected for RNA isolation and qPCR analysis. Ex vivo femoral organ culture was repeated twice with three biological replicates.
Quantitative PCR. Organs and whole bones were harvested from animals, removed of soft tissues, and stored immediately in liquid nitrogen. We prepared osteocyte-enriched bone by removing the ends of femurs and tibias and then flushing the bone marrow with PBS. We then scraped the bone surface with a scalpel and froze them in liquid nitrogen for later RNA isolation, or decalcified them for genomic DNA isolation. We isolated total RNA using TRIzol (Life technologies, NY), according to the manufacturer's instructions and prepared cDNA using High Capacity first strand cDNA synthesis kit (Life Technologies). We performed quantitative RT-PCR using the following Taqman assays from Applied Biosystems: Piezo1 (Mm01241549_m1); Piezo2 (Mm01265861_m1); Ptgs2 (Mm00478374_m1); Cyr61 (Mm00487498_m1); Wnt1 (Mm01300-555_g1); Yap1 (Mm011432-63_m1); Taz (Mm01289583_m1); Tnfsf11 Mm00441906_m1; Tnfrsf11b (Mm00435452_m1); Sost (Mm00470479_m1); and ribosomal protein S2 (Mrps2) (Mm00475529_m1). We calculated relative mRNA amounts using the ΔCt method (Livak and Schmittgen, 2001). We isolated genomic DNA from decalcified cortical bone after digestion with proteinase K and phenol/chloroform extraction. We obtained two custom Taqman assays from Applied Biosystems for quantifying Piezo1 gene deletion efficiency: one specific for sequences between the loxP sites and the other specific for sequences downstream from the 3′ loxP site.

T1 sequence (E2JF22 whole entry): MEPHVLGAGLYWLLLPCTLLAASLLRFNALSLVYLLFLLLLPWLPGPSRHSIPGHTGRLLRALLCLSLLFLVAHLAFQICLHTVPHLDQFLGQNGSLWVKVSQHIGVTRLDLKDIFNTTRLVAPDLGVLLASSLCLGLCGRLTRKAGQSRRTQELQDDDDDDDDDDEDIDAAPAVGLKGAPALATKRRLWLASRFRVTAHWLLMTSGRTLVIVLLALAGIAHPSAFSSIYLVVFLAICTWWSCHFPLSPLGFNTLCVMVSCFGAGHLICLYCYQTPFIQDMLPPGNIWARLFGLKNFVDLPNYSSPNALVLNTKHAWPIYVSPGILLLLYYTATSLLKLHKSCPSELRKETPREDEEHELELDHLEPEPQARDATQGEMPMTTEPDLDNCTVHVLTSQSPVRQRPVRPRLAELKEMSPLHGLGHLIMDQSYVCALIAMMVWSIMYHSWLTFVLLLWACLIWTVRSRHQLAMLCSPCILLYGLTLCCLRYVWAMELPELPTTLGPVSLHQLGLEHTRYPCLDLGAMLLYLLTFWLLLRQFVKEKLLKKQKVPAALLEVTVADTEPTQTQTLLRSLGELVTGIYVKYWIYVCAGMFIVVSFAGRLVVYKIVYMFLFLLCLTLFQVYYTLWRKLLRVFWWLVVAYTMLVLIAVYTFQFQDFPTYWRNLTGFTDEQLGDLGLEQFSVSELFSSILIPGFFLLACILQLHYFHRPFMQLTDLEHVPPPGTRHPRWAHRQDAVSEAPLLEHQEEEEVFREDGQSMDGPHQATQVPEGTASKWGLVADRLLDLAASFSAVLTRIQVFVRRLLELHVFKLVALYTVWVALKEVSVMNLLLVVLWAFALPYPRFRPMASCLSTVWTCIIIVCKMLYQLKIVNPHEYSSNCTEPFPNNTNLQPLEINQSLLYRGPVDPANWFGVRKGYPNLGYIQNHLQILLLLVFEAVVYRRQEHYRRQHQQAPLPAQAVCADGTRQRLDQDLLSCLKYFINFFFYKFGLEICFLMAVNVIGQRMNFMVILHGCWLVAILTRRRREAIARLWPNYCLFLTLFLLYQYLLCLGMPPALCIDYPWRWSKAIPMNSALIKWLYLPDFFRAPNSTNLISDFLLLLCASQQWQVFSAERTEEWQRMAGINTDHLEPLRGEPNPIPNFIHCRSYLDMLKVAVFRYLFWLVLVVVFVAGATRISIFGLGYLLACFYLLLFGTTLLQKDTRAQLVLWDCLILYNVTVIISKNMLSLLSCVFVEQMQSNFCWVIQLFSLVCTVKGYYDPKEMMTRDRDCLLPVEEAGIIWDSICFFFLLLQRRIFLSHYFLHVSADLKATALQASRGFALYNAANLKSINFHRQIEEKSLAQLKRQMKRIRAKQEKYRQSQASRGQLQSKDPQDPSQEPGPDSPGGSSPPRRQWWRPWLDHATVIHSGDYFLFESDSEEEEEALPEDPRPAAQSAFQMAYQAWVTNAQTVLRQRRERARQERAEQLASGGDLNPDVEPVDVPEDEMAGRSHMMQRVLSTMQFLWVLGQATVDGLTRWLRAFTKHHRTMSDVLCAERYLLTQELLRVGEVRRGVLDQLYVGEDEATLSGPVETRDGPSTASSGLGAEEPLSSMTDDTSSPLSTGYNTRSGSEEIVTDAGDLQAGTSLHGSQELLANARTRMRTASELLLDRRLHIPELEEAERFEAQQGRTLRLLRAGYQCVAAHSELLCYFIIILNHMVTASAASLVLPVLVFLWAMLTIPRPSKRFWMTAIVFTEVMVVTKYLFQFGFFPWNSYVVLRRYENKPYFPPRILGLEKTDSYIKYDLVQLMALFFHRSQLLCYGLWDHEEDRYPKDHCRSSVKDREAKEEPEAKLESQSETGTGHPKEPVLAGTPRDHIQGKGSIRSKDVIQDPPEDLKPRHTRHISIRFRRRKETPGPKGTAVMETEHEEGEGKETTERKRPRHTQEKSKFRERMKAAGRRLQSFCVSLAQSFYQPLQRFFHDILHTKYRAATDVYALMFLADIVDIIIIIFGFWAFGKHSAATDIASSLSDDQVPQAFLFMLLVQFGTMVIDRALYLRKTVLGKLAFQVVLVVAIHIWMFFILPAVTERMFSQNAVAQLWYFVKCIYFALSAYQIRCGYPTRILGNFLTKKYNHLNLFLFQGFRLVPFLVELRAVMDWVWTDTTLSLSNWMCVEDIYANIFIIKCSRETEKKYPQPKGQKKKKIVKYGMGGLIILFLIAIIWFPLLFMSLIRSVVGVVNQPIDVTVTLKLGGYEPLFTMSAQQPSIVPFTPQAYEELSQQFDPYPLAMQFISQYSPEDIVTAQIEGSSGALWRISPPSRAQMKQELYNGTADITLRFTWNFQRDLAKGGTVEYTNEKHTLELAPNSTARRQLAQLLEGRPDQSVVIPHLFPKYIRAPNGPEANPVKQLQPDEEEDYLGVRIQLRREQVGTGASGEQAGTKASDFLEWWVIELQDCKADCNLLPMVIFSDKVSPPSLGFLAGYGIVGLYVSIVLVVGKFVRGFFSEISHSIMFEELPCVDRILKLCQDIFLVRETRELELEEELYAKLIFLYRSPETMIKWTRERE

Fc1ccc(Cl)c(CSc2nnc(-c3cnccn3)s2)c1Cl [YW-3-170]
calcium influx compared with Yoda1 ([1]; MLO-Y4 cells, 10 μM): much more calcium influx than Yoda1
intracellular calcium concentration compared with Yoda1 ([1]; MLO-Y4 cells, at 2 μM, 5 μM, and 10 μM): higher intracellular calcium concentration than Yoda1
intracellular calcium concentration, dose dependence ([1]; MLO-Y4 cells, different doses): dose-dependently
calcium influx / increase of intracellular calcium in Piezo1 knock-down cells ([1]; 10 μM): completely blocked; also recorded: loss of their ability to stimulate calcium influx
Piezo1 agonist activity (conclusion in words) ([2]; MLO-Y4 cells): potent agonists for Piezo1; also recorded: potent and specific Piezo1 agonists
activity in activating Piezo1 compared to Yoda1 ([2]; MLO-Y4 cells in vitro): comparable or superior activity

Clc1cccc(Cl)c1CSc1nnc(-c2cnccn2)s1 [Yoda1]
intracellular calcium concentration ([1]; MLO-Y4 cells, 10 μM, vs DMSO): increased
calcium influx / increase of intracellular calcium in Piezo1 knock-down cells ([1]; 10 μM): completely prevented; also recorded: completely blocked
Wnt1 expression in osteocyte-enriched cortical bone in vivo [3]: increased
serum levels of CTX, a bone resorption marker [4]: did not observe changes
serum levels of osteocalcin, a bone formation marker [4]: increased
Cyr61 expression [5]: promoted expression
Ptgs2 expression [5]: promoted expression
Sost expression [5]: decreased
Tnfrsf11b expression [5]: promoted expression
Wnt1 expression [5]: promoted expression

— patent publication US20240059685A1, “PIEZO1 AGONISTS FOR THE PROMOTION OF BONE FORMATION” (BIOVENTURES, LLC, priority 2019, published 2024)
